From patent US4306069A, “Encainide N-oxide” (priority 1980, dated 1981)
Converted amounts (≈) assume the structure as drawn. “Also recorded” adds a separate entry of the source. Counter-ions that a name gives are not always drawn.

Tests used:
Water solubility = format: physicochemical
[1] = Toxicity, oral doses in mice (ALD50, ATD50); format: in vivo; conditions: in vivo, mouse, oral, 5 mg/kg to 2000 mg/kg, 2 mice each dose; for LD50: read-out: ALD50 (approximate lethal dose for half the animals); for TD50: read-out: ATD50 (approximate lowest dose where signs of physiologic or neurologic deficit appear)
Experimental: (§1) ^(1) Various oral doses of from 5 mg/kg to 2000 mg/kg are given to 2
(§2) mice each; ALD50 is the approximate lethal dose for half the animals
(§3) ATD50 is the approximate lowest dose where signs of physiologic or
(§4) neurologic deficit appear.

mice = experiment: Toxicity, oral doses in mice (ALD50, ATD50); format: in vivo; conditions: compared with encainide and its hydrochloride salt
Experimental: as §1, §2, §3, §4

dog = experiment: Dog I.V.: anesthetized dog, effects on blood pressure, respiration and paw temperature; format: in vivo; conditions: for Toxicity, Dog I.V., effect at 1 mg/kg: first dose 1 mg/kg, blood pressure, respiration, paw temperature
Experimental: ^(2) Anesthesized dog treated first with a 1 mg/kg dose and then with
a 10 mg/kg dose; effects on blood pressure, respiration, and paw
temperature are observed.

[2] = test system: ouabain induced ventricular tachycardia; experiment: Antiarrhythmic activity, ouabain induced ventricular tachycardia in the dog; format: in vivo; conditions: compared with quinidine and encainide
Text: The present substance is an improved antiarrhythmic agent.
^(3) Anesthetized open chest dog, ouabain induced (Byrne, J.E., et al

[3] = test system: ventricular arrhythmia produced by chloroform inhalation; experiment: Antiarrhythmic activity, ventricular arrhythmia produced in mice by chloroform inhalation; format: in vivo; conditions: 10 animals per dose
Text: ^(4) Ventricular arrhythmia produced in mice by chloroform inhalation
10 animals per dose (Lawson, J. W., J. Pharmacol. Exp. Therap. 160, 22

SMILES	Water solubility, in words (Water solubility)	solubility (Water solubility; water)	LD50 [1]	TD50 [1]	Toxicity relative to encainide, in words (mice)	Toxicity, Dog I.V., effect at 1 mg/kg (dog)	Antiarrhythmic activity in ouabain induced ventricular tachycardia, in words [2]	Antiarrhythmic Activity, Mouse, I.P., activity at 31.3 mg/kg ([3]; 31.3 mg/kg)	Water solubility (Water solubility; water)	Toxicity, Dog I.V., effect at 10 mg/kg (dog; 10 mg/kg after 1 mg/kg)	ED50 ([3]; ip, mouse, I.P.)
COc1ccc(C(=O)Nc2ccccc2CCC2CCCC[N+]2(C)[O-])cc1 (racemic) [Encainide N-Oxide, 4-Methoxy-N-[2-[2-(1-methyl-2-piperidyl)ethyl]phenyl]-benzamide N-oxide]	increased water solubility; also recorded: highly water soluble	833 mg/mL (≈ 2260 mM)	500 to 1000 mg/kg	62.5 to 125 mg/kg	substantially reduced toxicity	no effect	comparable to quinidine in activity, but somewhat less active than encainide	inactive			
COc1ccc(C(=O)Nc2ccccc2CCC2CCCCN2C)cc1 (centres unmarked) [Encainide]	rather low water solubility		50 to 100 mg/kg	5 to 10 mg/kg		no effect			46.3 mg/mL	lethal	7.1 to 15 mg/kg
COc1ccc(C(=O)Nc2ccccc2CCC2CCCCN2C)cc1 (centres unmarked) [hydrochloride salt]	higher water solubility relative to the base								205 mg/mL		
